According to ChEMBL document CHEMBL3085671, “5,6-Dihydro-5-aza-2'-deoxycytidine potentiates the anti-HIV-1 activity of ribonucleotide reductase inhibitors” (Bioorg Med Chem, 2013):
Active and inactive are the calls of the source. The calls are words filed in the database; no cut-off is given here.

What was measured:
[1] = test system: Human immunodeficiency virus 1; test: Antiviral activity against HIV1 infected in human U373-MAGI cells assessed as G to A mutation at 50 uM (reference value: 27%); type: functional
[2] = test system: Human immunodeficiency virus 1; test: Antiviral activity against HIV1 infected in human U373-MAGI cells assessed as C to T mutation at 50 uM (reference value: 13%); type: functional
[3] = test system: Human immunodeficiency virus 1; test: (§1) Antiviral activity against HIV1 infected in human U373-MAGI cells assessed as increase in mutant frequency incubated for 2 hrs prior to viral infection followed by compound washout after 24 hrs measured 72 hrs post-infection by flow cytometry; type: functional, organism-based
[4] = test system: Human immunodeficiency virus 1; test: Antiviral activity against HIV1 infected in human U373-MAGI cells assessed as A to G mutation at 50 uM (reference value: 22%); type: functional
[5] = test system: Human immunodeficiency virus 1; test: Antiviral activity against HIV1 infected in human U373-MAGI cells assessed as induction of mutations at 50 uM (reference value: 18%); type: functional
[6] = test system: Human immunodeficiency virus 1; test: Antiviral activity against HIV1 infected in human U373-MAGI cells incubated for 2 hrs prior to viral infection followed by compound washout after 24 hrs measured 72 hrs post-infection by flow cytometry; type: functional, organism-based; conditions: Human immunodeficiency virus 1, U373-MAGI
[7] = Cytotoxicity against human U373-MAGI cells by CellTitre-Glo assay; type: cell-based
[8] = test system: Human immunodeficiency virus 1; test: Antiviral activity against HIV1 infected in human U373-MAGI cells assessed as T to C mutation at 50 uM (reference value: 18%); type: functional
[9] = test system: Human immunodeficiency virus 1; test: Antiviral activity against HIV1 infected in human U373-MAGI cells assessed as T to C mutation at 20 nM (reference value: 18%); type: functional
[10] = test system: Human immunodeficiency virus 1; test: Antiviral activity against HIV1 infected in human U373-MAGI cells assessed as induction of mutations at 20 nM (reference value: 18%); type: functional
[11] = test system: Human immunodeficiency virus 1; test: Antiviral activity against HIV1 infected in human U373-MAGI cells assessed as C to T mutation at 20 nM (reference value: 13%); type: functional
[12] = test system: Human immunodeficiency virus 1; test: Antiviral activity against HIV1 infected in human U373-MAGI cells assessed as A to G mutation at 20 nM (reference value: 22%); type: functional
[13] = test system: Human immunodeficiency virus 1; test: Antiviral activity against HIV1 infected in human U373-MAGI cells assessed as G to A mutation at 20 nM (reference value: 27%); type: functional
[14] = Selectivity index, ratio of CC50 for human U373-MAGI cells to EC50 for HIV1 infected in human U373-MAGI cells; type: toxicity, cell-based; conditions: read-out: Ratio CC50/EC50
[15] = test system: Human immunodeficiency virus 1; test: Potentiation of gemcitabine-induced antiviral activity against HIV1 infected in human U373-MAGI cells assessed as induction of mutations at 5 uM (reference value: 18%); type: functional
[16] = test system: Human immunodeficiency virus 1; test: Inhibition of gemcitabine-induced antiviral activity against HIV1 infected in human U373-MAGI cells at 100 to 200 uM incubated for 2 hrs prior to viral infection followed by compound washout after 24 hrs measured 72 hrs post-infection by flow cytometry; type: functional, organism-based
[17] = test system: Human immunodeficiency virus 1; test: Potentiation of resveratrol-induced antiviral activity against HIV1 infected in human U373-MAGI cells assessed as C to T mutation at 200 uM (reference value: 13%); type: functional
[18] = test system: Human immunodeficiency virus 1; test: Antiviral activity against HIV1 infected in human U373-MAGI cells at 5 to 200 uM incubated for 2 hrs prior to viral infection followed by compound washout after 24 hrs measured 72 hrs post-infection by flow cytometry; type: functional, organism-based
[19] = test system: Human immunodeficiency virus 1; test: Antiviral activity against HIV1 infected in human U373-MAGI cells assessed as T to C mutation at 200 uM (reference value: 18%); type: functional
[20] = test system: Human immunodeficiency virus 1; test: as §1, with “Potentiation of resveratrol-induced antiviral” for “Antiviral”, “frequency at 5 to 200 uM” for “frequency”, “cytometry relative to control” for “cytometry”; type: functional
[21] = test system: Human immunodeficiency virus 1; test: Antiviral activity against HIV1 infected in human U373-MAGI cells assessed as C to T mutation at 200 uM (reference value: 13%); type: functional
[22] = test system: Human immunodeficiency virus 1; test: Potentiation of gemcitabine-induced antiviral activity against HIV1 infected in human U373-MAGI cells assessed as induction of mutations at 200 uM (reference value: 18%); type: functional
[23] = test system: Human immunodeficiency virus 1; test: Antiviral activity against HIV1 assessed as viral infection; type: functional, organism-based
[24] = test system: Human immunodeficiency virus 1; test: Antiviral activity against HIV1 infected in human U373-MAGI cells assessed as A to G mutation at 200 uM (reference value: 22%); type: functional
[25] = test system: Human immunodeficiency virus 1; test: Potentiation of deferoxamine-induced antiviral activity against HIV1 infected in human U373-MAGI cells incubated for 2 hrs prior to viral infection followed by compound washout after 24 hrs measured 72 hrs post-infection by flow cytometry; type: functional, organism-based
[26] = test system: Human immunodeficiency virus 1; test: Potentiation of gemcitabine-induced antiviral activity against HIV1 infected in human U373-MAGI cells at 5 to 50 uM incubated for 2 hrs prior to viral infection followed by compound washout after 24 hrs measured 72 hrs post-infection by flow cytometry; type: functional, organism-based
[27] = test system: Human immunodeficiency virus 1; test: Potentiation of gemcitabine-induced antiviral activity against HIV1 infected in human U373-MAGI cells assessed as C to T mutation at 5 uM (reference value: 13%); type: functional
[28] = test system: Human immunodeficiency virus 1; test: Potentiation of resveratrol-induced antiviral activity against HIV1 infected in human U373-MAGI cells at 200 uM incubated for 2 hrs prior to viral infection followed by compound washout after 24 hrs measured 72 hrs post-infection by flow cytometry; type: functional, organism-based; conditions: Human immunodeficiency virus 1, U373-MAGI
[29] = test system: Human immunodeficiency virus 1; test: Potentiation of resveratrol-induced antiviral activity against HIV1 infected in human U373-MAGI cells incubated for 2 hrs prior to viral infection followed by compound washout after 24 hrs measured 72 hrs post-infection by flow cytometry; type: functional, organism-based
[30] = test system: Human immunodeficiency virus 1; test: Potentiation of deferoxamine-induced antiviral activity against HIV1 infected in human U373-MAGI cells at 200 uM incubated for 2 hrs prior to viral infection followed by compound washout after 24 hrs measured 72 hrs post-infection by flow cytometry; type: functional, organism-based; conditions: Human immunodeficiency virus 1, U373-MAGI
[31] = test system: Human immunodeficiency virus 1; test: Potentiation of resveratrol-induced antiviral activity against HIV1 infected in human U373-MAGI cells assessed as G to C mutation at 200 uM; type: functional
[32] = test system: Human immunodeficiency virus 1; test: Antiviral activity against HIV1 infected in human U373-MAGI cells assessed as G to A mutation at 200 uM (reference value: 27%); type: functional
[33] = test system: Human immunodeficiency virus 1; test: Potentiation of gemcitabine-induced antiviral activity against HIV1 infected in human U373-MAGI cells assessed as A to G mutation at 5 uM (reference value: 22%); type: functional
[34] = test system: Human immunodeficiency virus 1; test: Potentiation of resveratrol-induced antiviral activity against HIV1 infected in human U373-MAGI cells assessed as T to C mutation at 200 uM (reference value: 18%); type: functional
[35] = test system: Human immunodeficiency virus 1; test: Antiviral activity against HIV1 infected in human U373-MAGI cells assessed as induction of mutations at 200 uM (reference value: 18%); type: functional
[36] = test system: Human immunodeficiency virus 1; test: (§2) Antiviral activity against HIV1 infected in human U373-MAGI cells assessed as increase in mutant frequency at 5 to 200 uM incubated for 2 hrs prior to viral infection followed by compound washout after 24 hrs measured 72 hrs post-infection by flow cytometry; type: functional
[37] = test system: Human immunodeficiency virus 1; test: Antiviral activity against HIV1 infected in human U373-MAGI cells assessed as G to C mutation at 200 uM; type: functional
[38] = test system: Human immunodeficiency virus 1; test: (§3) Potentiation of gemcitabine-induced antiviral activity against HIV1 infected in human U373-MAGI cells at 5 uM incubated for 2 hrs prior to viral infection followed by compound washout after 24 hrs measured 72 hrs post-infection by flow cytometry; type: functional, organism-based; conditions: Human immunodeficiency virus 1, U373-MAGI
[39] = test system: Human immunodeficiency virus 1; test: Potentiation of gemcitabine-induced antiviral activity against HIV1 infected in human U373-MAGI cells assessed as T to C mutation at 5 uM (reference value: 18%); type: functional
[40] = test system: Human immunodeficiency virus 1; test: Potentiation of resveratrol-induced antiviral activity against HIV1 infected in human U373-MAGI cells assessed as A to G mutation at 200 uM (reference value: 22%); type: functional
[41] = test system: Human immunodeficiency virus 1; test: Potentiation of gemcitabine-induced antiviral activity against HIV1 infected in human U373-MAGI cells G to A mutation at 5 uM (reference value: 27%); type: functional
[42] = test system: Human immunodeficiency virus 1; test: as §3, with “cells assessed as increase in mutant frequency” for “cells”, “25” for “5”, “cytometry relative to control” for “cytometry”; type: functional
[43] = Cytotoxicity against human U373-MAGI cells up to 200 uM by CellTitre-Glo assay; type: cell-based
[44] = test system: Human immunodeficiency virus 1; test: Potentiation of gemcitabine-induced antiviral activity against HIV1 infected in human U373-MAGI cells assessed as G to C mutation at 5 uM; type: functional
[45] = test system: Human immunodeficiency virus 1; test: as §2, with “Potentiation of deferoxamine-induced antiviral” for “Antiviral”, “cytometry relative to control” for “cytometry”; type: functional
[46] = test system: Human immunodeficiency virus 1; test: Inhibition of gemcitabine-induced antiviral activity against HIV1 infected in human U373-MAGI cells assessed as increase in mutant frequency incubated for 2 hrs prior to viral infection followed by compound washout after 24 hrs measured 72 hrs post-infection by flow cytometry relative to gemcitabine; type: functional, organism-based
[47] = test system: Human immunodeficiency virus 1; test: Potentiation of resveratrol-induced antiviral activity against HIV1 infected in human U373-MAGI cells G to A mutation at 200 uM (reference value: 27%); type: functional

Q: Which Activity [1] does the source give for `Oc1ccc(/C=C/c2cc(O)cc(O)c2)cc1` [RESVERATROL] here?
A: 18%

Q: What about the Activity [2] of the same compound?
A: 4%

Q: What about the Activity [3] of the same compound?
A: Dose-dependent effect

Q: What about the Activity [4] of the same compound?
A: 38%

Q: What about the Activity [5] of the same compound?
A: 22%

Q: And the EC50 [6]?
A: 99.6 µM

Q: What about the CC50 ([7]; U373-MAGI cells) of the same compound?
A: > 400 µM

Q: And the Activity [8]?
A: 16%

Q: For `Nc1ccn([C@@H]2O[C@H](CO)[C@@H](O)C2(F)F)c(=O)n1` [GEMCITABINE], which Activity [9] is on record?
A: 24%

Q: And the Activity [10]?
A: 24%

Q: What about the Activity [3] of the same compound?
A: Dose-dependent effect

Q: And the Activity [11]?
A: 13%

Q: And the Activity [12]?
A: 24%

Q: And the Activity [13]?
A: 13%

Q: And the CC50 ([7]; u373-magi)?
A: 62 µM

Q: With `CC(=O)N(O)CCCCCNC(=O)CCC(=O)N(O)CCCCCNC(=O)CCC(=O)N(O)CCCCCN` [DEFEROXAMINE] as the compound, how does the selectivity ratio [14] read?
A: > 1

Q: What about the Activity [3] of the same compound?
A: Dose-dependent effect

Q: What about the EC50 [6] of the same compound?
A: 384 µM

Q: And the CC50 ([7]; u373-magi)?
A: > 400 µM

Q: Which Activity [15] does the source give for `NC1=NC(=O)N([C@H]2C[C@H](O)[C@@H](CO)O2)CN1` [KP-1212] here?
A: 14%

Q: What about the inhibition [16] of the same compound?
A: Active

Q: And the Activity [17]?
A: 9%

Q: And the Activity [18]?
A: Active

Q: And the Activity [19]?
A: 8%

Q: What about the “fold change (FC)” value [20] of the same compound?
A: 6.2

Q: What about the Activity [21] of the same compound?
A: 10%

Q: What about the Activity [22] of the same compound?
A: 14%

Q: And the EC50 [23]?
A: 0.01 µM

Q: What about the Activity [3] of the same compound?
A: Dose-dependent effect

Q: What about the Activity [24] of the same compound?
A: 18%

Q: What about the Activity [25] of the same compound?
A: Dose-dependent effect

Q: What about the Activity [26] of the same compound?
A: Active

Q: And the Activity [27]?
A: 12%

Q: And the EC50 [28]?
A: 52.8 µM

Q: And the Activity [29]?
A: Dose-dependent effect

Q: What about the EC50 [30] of the same compound?
A: 248 µM

Q: What about the Activity [31] of the same compound?
A: 41%

Q: What about the Activity [32] of the same compound?
A: 24%

Q: And the Activity [33]?
A: 32%

Q: And the Activity [34]?
A: 10%

Q: What about the Activity [35] of the same compound?
A: 16%

Q: What about the “fold change (FC)” value [36] of the same compound?
A: 1.6

Q: What about the Activity [37] of the same compound?
A: 22%

Q: And the EC50 [38]?
A: 0.0216 µM

Q: And the Activity [39]?
A: 14%

Q: What about the Activity [40] of the same compound?
A: 13%

Q: What about the Activity [41] of the same compound?
A: 18%

Q: And the “fold change (FC)” value [42]?
A: 4.8

Q: What about the Activity [43] of the same compound?
A: Non-toxic

Q: And the Activity [44]?
A: 11%

Q: And the “fold change (FC)” value [45]?
A: 4.7

Q: What about the inhibition [46] of the same compound?
A: Active

Q: And the Activity [47]?
A: 13%

Q: With `Nc1ncn([C@@H]2O[C@H](CO)[C@@H](O)[C@H]2O)c(=O)n1` [AZACITIDINE] as the compound, how does the EC50 [23] read?
A: 53 µM
